From patent publication US11084800B2 (Achillion Pharmaceuticals, Inc., priority 2017, dated 2021)

molecular target: Human Factor D (Homo sapiens (Human), UniProt P00746); assay: Human Factor D Assay; format: biochemical; settings: Factor D inhibition, assay of Example 10; read-out: IC5 (Stars)
How it was run: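 Serum-purified Factor D (80 nM final) preincubated 5 min at room temperature with compound in 50 mM Tris, 1 M NaCl, pH 7.5. Z-L-Lys-SBz and DTNB added at 100 μM each; A405 followed every 30 s for 30 min. IC50 from nonlinear regression of rates versus concentration.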

Chain of Human Factor D (P00746 26-253): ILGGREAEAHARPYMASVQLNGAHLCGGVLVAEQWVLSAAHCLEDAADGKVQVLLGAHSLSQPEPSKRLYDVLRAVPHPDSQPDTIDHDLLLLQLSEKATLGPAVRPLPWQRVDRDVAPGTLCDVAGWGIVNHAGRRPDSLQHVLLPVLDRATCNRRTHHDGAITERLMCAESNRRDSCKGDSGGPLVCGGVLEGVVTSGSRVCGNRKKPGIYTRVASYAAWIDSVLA

| SMILES | IC50 |
| --- | --- |
| CC(=O)c1nn(CC(=O)N2[C@H](C(=O)Nc3nc(Br)ccc3C)C[C@@]3(C)C[C@@H]23)c2c(C(F)CF)cc(-c3cnc(C)nc3)cc12 (stereo partly drawn) [Compound 237, (1R,3S,5R)-2-(2-(3-acetyl-7-(1,2-difluoroethyl)-5-(2-methylpyrimidin-5-yl)-1H-indazol-1-yl)acetyl)-N-(6-bromo-3-methylpyridin-2-yl)-5-methyl-2-azabicyclo[3.1.0]hexane-3-carboxamide] | < 1 µM |
| CC(=O)c1nn(CC(=O)N2[C@H](C(=O)Nc3nc(Br)ccc3C)C[C@@]3(C)C[C@@H]23)c2c(C(O)CF)cc(-c3cnc(C)nc3)cc12 (stereo partly drawn) [Compound 238, (1R,3S,5R)-2-(2-(3-acetyl-7-(2-fluoro-1-hydroxyethyl)-5-(2-methylpyrimidin-5-yl)-1H-indazol-1-yl)acetyl)-N-(6-bromo-3-methylpyridin-2-yl)-5-methyl-2-azabicyclo[3.1.0]hexane-3-carboxamide] | < 1 µM |
| CC(=O)c1nn(CC(=O)N2[C@H]3C[C@@]3(CC#N)C[C@H]2C(=O)Nc2nc(Br)ccc2C)c2cnc(-c3cnc(C)nc3)cc12 [Compound 239, (1S,3S,5S)-2-(2-(3-acetyl-5-(2-methylpyrimidin-5-yl)-1H-pyrazolo[3,4-c]pyridin-1-yl)acetyl)-N-(6-bromo-3-methylpyridin-2-yl)-5-(cyanomethyl)-2-azabicyclo[3.1.0]hexane-3-carboxamide] | 1 to 10 µM |

same assay, conditions: Table 6; Factor D 80 nM, substrate Z-L-Lys-SBz; read-out: IC50

| SMILES | IC50 |
| --- | --- |
| CC(=O)c1nn(CC(=O)N2[C@H](C(=O)Nc3nc(Br)ccc3C)C[C@@]3(C)C[C@@H]23)c2cnc(-c3cnc(C)[n+]([O-])c3)cc12 [Compound 200, 5-(3-acetyl-1-(2-((1R,3S,5R)-3-((6-bromo-3-methylpyridin-2-yl)carbamoyl)-5-methyl-2-azabicyclo[3.1.0]hexan-2-yl)-2-oxoethyl)-1H-pyrazolo[3,4-c]pyridin-5-yl)-2-methylpyrimidine 1-oxide] | < 1 µM |
| CC(=O)c1nn(CC(=O)N2[C@H](C(=O)Nc3nc(Br)ccc3C)C[C@@]3(Cn4cc(C5CC5)nn4)C[C@@H]23)c2ccc(-c3cnc(C)nc3)cc12 [Compound 201, (1R,3S,5R)-2-(2-(3-acetyl-5-(2-methylpyrimidin-5-yl)-1H-indazol-1-yl)acetyl)-N-(6-bromo-3-methylpyridin-2-yl)-5-((4-cyclopropyl-1H-1,2,3-triazol-1-yl)methyl)-2-azabicyclo[3.1.0]hexane-3-carboxamide] | < 1 µM |
| CC(=O)c1nn(CC(=O)N2[C@H](C(=O)Nc3nc(Br)ccc3C)C[C@@]3(Cn4cc([Si](C)(C)C)nn4)C[C@@H]23)c2ccc(-c3cnc(C)nc3)cc12 [Compound 202, (1R,3S,5R)-2-(2-(3-acetyl-5-(2-methylpyrimidin-5-yl)-1H-indazol-1-yl)acetyl)-N-(6-bromo-3-methylpyridin-2-yl)-5-((4-(trimethylsilyl)-1H-1,2,3-triazol-1-yl)methyl)-2-azabicyclo[3.1.0]hexane-3-carboxamide] | < 1 µM |
| CC(=O)c1nn(CC(=O)N2[C@H](C(=O)Nc3nc(Br)ccc3C)C[C@@]3(Cn4ccnn4)C[C@@H]23)c2ccc(-c3cnc(C)nc3)cc12 [Compound 203, (1R,3S,5R)-5-((1H-1,2,3-triazol-1-yl)methyl)-2-(2-(3-acetyl-5-(2-methylpyrimidin-5-yl)-1H-indazol-1-yl)acetyl)-N-(6-bromo-3-methylpyridin-2-yl)-2-azabicyclo[3.1.0]hexane-3-carboxamide] | < 1 µM |
| CC(=O)c1nn(CC(=O)N2[C@H](C(=O)Nc3nc(Br)ccc3CN3CC4(COC4)C3)C[C@@]3(C)C[C@@H]23)c2ccc(-c3cnc(C)nc3)cc12 [Compound 204] | < 1 µM |
| CC(=O)c1nn(CC(=O)N2[C@H](C(=O)Nc3nc(Br)ccc3C)C[C@@]3(C)C[C@@H]23)c2c(C)nc(-c3cnc(C)nc3)cc12 [Compound 205, (1R,3S,5R)-2-(2-(3-acetyl-7-methyl-5-(2-methylpyrimidin-5-yl)-1H-pyrazolo[3,4-c]pyridin-1-yl)acetyl)-N-(6-bromo-3-methylpyridin-2-yl)-5-methyl-2-azabicyclo[3.1.0]hexane-3-carboxamide] | < 1 µM |
| CC(=O)c1nn(CC(=O)N2[C@H]3C[C@@]3(CN3C[C@H]4CCC[C@H]4C3)C[C@H]2C(=O)Nc2nc(Br)ccc2C)c2cnc(-c3cnc(C)nc3)cc12 [Compound 206, (1S,3S,5S)-2-(2-(3-acetyl-5-(2-methylpyrimidin-5-yl)-1H-pyrazolo[3,4-c]pyridin-1-yl)acetyl)-N-(6-bromo-3-methylpyridin-2-yl)-S-(((3aR,6a5)-hexahydrocyclopenta[c]pyrrol-2(1H)-yl)methyl)-2-azabicyclo[3.1.0]hexane-3-carboxamide] | < 1 µM |
| CC(=O)c1nn(CC(=O)N2[C@H]3C[C@@]3(CN3CC4(CCCC4)C3)C[C@H]2C(=O)Nc2nc(Br)ccc2C)c2cnc(-c3cnc(C)nc3)cc12 [Compound 207, (1S,3S,5S)-5-((2-azaspiro[3.4]octan-2-yl)methyl)-2-(2-(3-acetyl-5-(2-methylpyrimidin-5-yl)-1H-pyrazolo[3,4-c]pyridin-1-yl)acetyl)-N-(6-bromo-3-methylpyridin-2-yl)-2-] | < 1 µM |
| CC(=O)c1nn(CC(=O)N2[C@H](C(=O)Nc3nc(Br)ccc3C)C[C@@]3(C)C[C@@H]23)c2c(C)cc(-c3cnc(OC4COC4)nc3)cc12 [Compound 208, (1R,3S,5R)-2-(2-(3-acetyl-7-methyl-5-(2-(oxetan-3-yloxy)pyrimidin-5-yl)-1H-indazol-1-yl)acetyl)-N-(6-bromo-3-methylpyridin-2-yl)-5-methyl-2-azabicyclo[3.1.0]hexane-3-carboxamide] | < 1 µM |
| CC(=O)c1nn(CC(=O)N2[C@H](C(=O)Nc3nc(Br)c(F)cc3C)C[C@@]3(C)C[C@@H]23)c2c(C)nc(-c3cnc(C)nc3)cc12 [Compound 209, (1R,3S,5R)-2-(2-(3-acetyl-7-methyl-5-(2-methylpyrimidin-5-yl)-1H-pyrazolo[3,4-c]pyridin-1-yl)acetyl)-N-(6-bromo-5-fluoro-3-methylpyridin-2-yl)-5-methyl-2-azabicyclo[3.1.0]hexane-3-carboxamide] | < 1 µM |
| CC(=O)c1nn(CC(=O)N2[C@H](C(=O)Nc3nc(Br)ccc3C)C[C@@]3(C)C[C@@H]23)c2c(C)cc(-c3cnc(C)nc3)nc12 [Compound 210, (1R,3S,5R)-2-(2-(3-acetyl-7-methyl-5-(2-methylpyrimidin-5-yl)-1H-pyrazolo[4,3-b]pyridin-1-yl)acetyl)-N-(6-bromo-3-methylpyridin-2-yl)-5-methyl-2-azabicyclo[3.1.0]hexane-3-carboxamide] | > 10 µM |
| NC(=O)c1cc(-c2cccnc2)n(CC(=O)N2C[C@H](F)C[C@H]2C(=O)Nc2cccc(Br)n2)n1 [Compound 211, 1-(2-((2S,4R)-2-((6-Bromopyridin-2-yl)carbamoyl)-4-fluoropyrrolidin-1-yl)-2-oxoethyl)-5-(pyridin-3-yl)-1H-pyrazole-3-carboxamide] | < 1 µM |
| Cc1ccc(Br)nc1NC(=O)[C@@H]1C[C@@]2(C)C[C@H]2N1C(=O)Cn1nc(C(N)=O)cc1-c1ccco1 [Compound 212, (1R,3S,5R)—N-(6-Bromo-3-methylpyridin-2-yl)-2-(2-(3-carbamoyl-5-(furan-2-yl)-1H-pyrazol-1-yl)acetyl)-5-methyl-2-azabicyclo[3.1.0]hexane-3-carboxamide] | < 1 µM |
| Cc1ccc(Br)nc1NC(=O)[C@@H]1C[C@@]2(C)C[C@H]2N1C(=O)Cn1nc(-c2ccco2)cc1C(N)=O [Compound 213, (1R,3S,5R)—N-(6-Bromo-3-methylpyridin-2-yl)-2-(2-(5-carbamoyl-3-(furan-2-yl)-1H-pyrazol-1-yl)acetyl)-5-methyl-2-azabicyclo[3.1.0]hexane-3-carboxamide] | 1 to 10 µM |
| Cc1ccc(Br)nc1NC(=O)[C@@H]1C[C@@]2(C)C[C@H]2N1C(=O)Cn1nc(C(N)=O)cc1-c1cccs1 [Compound 214, (1R,3S,5R)—N-(6-Bromo-3-methylpyridin-2-yl)-2-(2-(3-carbamoyl-5-(thiophen-2-yl)-1H-pyrazol-1-yl)acetyl)-5-methyl-2-azabicyclo[3.1.0]hexane-3-carboxamide] | < 1 µM |
| Cc1ncc(-c2cc(C(N)=O)nn2CC(=O)N2C[C@H](F)C[C@H]2C(=O)Nc2cccc(Br)n2)cn1 [Compound 215, 1-(2-((2S,4R)-2-((6-Bromopyridin-2-yl)carbamoyl)-4-fluoropyrrolidin-1-yl)-2-oxoethyl)-5-(2-methylpyrimidin-5-yl)-1H-pyrazole-3-carboxamide] | > 10 µM |
| CC(=O)c1c2cc(-c3cnc(C)nc3)cc(C(F)(F)F)c2nn1CC(=O)N1[C@H](C(=O)Nc2nc(Br)ccc2C)C[C@@]2(C)C[C@@H]12 [Compound 217, (1R,3S,5R)-2-(2-(3-acetyl-5-(2-methylpyrimidin-5-yl)-7-(trifluoromethyl)-2H-indazol-2-yl)acetyl)-N-(6-bromo-3-methylpyridin-2-yl)-5-methyl-2-azabicyclo[3.1.0]hexane-3-carboxamide] | > 10 µM |
| CC(=O)c1nn(CC(=O)N2[C@H](C(=O)Nc3nc(Br)ccc3C)C[C@@]3(C)C[C@@H]23)c2cnc(-c3cnc4cc(C)nn4c3)cc12 [Compound 219, (1R,3S,5R)-2-(2-(3-acetyl-5-(2-methylpyrazolo[1,5-a]pyrimidin-6-yl)-1H-pyrazolo[3,4-c]pyridin-1-yl)acetyl)-N-(6-bromo-3-methylpyridin-2-yl)-5-methyl-2-azabicyclo[3.1.0]hexane-3-carboxamide] | < 1 µM |

same assay, conditions: Table 8; Factor D 80 nM, substrate Z-L-Lys-SBz; read-out: IC50

| SMILES | IC50 |
| --- | --- |
| CC(=O)c1nn(CC(=O)N2[C@H](C(=O)Nc3nc(Br)ccc3C)C[C@@]3(C)C[C@@H]23)c2c(-c3nn[nH]n3)cc(-c3cnc(C)nc3)cc12 [Compound 236, (1R,3S,5R)-2-(2-(3-acetyl-5-(2-methylpyrimidin-5-yl)-7-(2H-tetrazol-5-yl)-1H-indazol-1-yl)acetyl)-N-(6-bromo-3-methylpyridin-2-yl)-5-methyl-2-azabicyclo[3.1.0]hexane-3-carboxamide] | < 1 µM |
